Read-outs that look alike come from different tables or passages of the source.
Tests used:
[1] = tested on: WT (wild-type HIV virus; recombinant NL4-3 virus); experiment: microbe, parasite or virus in culture; assay type: cell-based, HIV-1
Description: (§1) MT-2 cells and 293T cells were obtained from the NIH AIDS Research and Reference Reagent Program. MT-2 cells were propagated in RPMI 1640 media supplemented with 10% heat-inactivated fetal bovine serum, […]. The 293T cells were propagated in DMEM media supplemented with 10% heat-inactivated fetal bovine serum (FBS), 100 units/mL penicillin G and 100 μg/mL streptomycin. […] A recombinant NL4-3 virus, in which a section of the nef gene from NL4-3 was replaced with the Renilla luciferase gene, was used as a reference virus. In addition, residue Gag P373 was converted to P373S. […] Transfections were performed in 293T cells using LipofectAMINE PLUS from Invitrogen (Carlsbad, Calif.), according to manufacturer's instruction. The virus was titered in MT-2 cells using luciferase enzyme activity as a marker. Luciferase was quantitated using the Dual Luciferase kit from Promega (Madison, Wis.), with modifications to the manufacturer's protocol. The diluted Passive Lysis solution was pre-mixed with the re-suspended Luciferase Assay Reagent and the re-suspended Stop & Glo Substrate (2:1:1 ratio). Fifty (50) μL of the mixture was added to each aspirated well on assay plates and luciferase activity was measured immediately on a Wallac TriLux (Perkin-Elmer). Antiviral activities of inhibitors toward the recombinant virus were quantified by measuring luciferase activity in cells infected for 4-5 days with NLRluc recombinants in the presence serial dilutions of the inhibitor.
WT refers to wild-type HIV virus. […]

[2] = tested on: HIV-1 NL4-3 gag A364V virus; experiment: microbe, parasite or virus in culture; assay type: cell-based
Description: as §1
Both recombinant viruses were used as described above in the HIV cell culture assay for the NL4-3 virus.

[3] = Human immunodeficiency virus 1, NL43, MT2, read-out: WT (EC50, uM), Table 1 regular screen, MT-2 cells, luciferase readout
[4] = Human immunodeficiency virus 1, NL43, MT2, read-out: A364V (EC50, uM), Table 1 regular screen, MT-2 cells, luciferase readout
[5] = Human immunodeficiency virus 1, NL43, MT2, read-out: WT (EC50, uM), Table 1 regular screen, class symbol
[6] = Human immunodeficiency virus 1, NL43, MT2, read-out: A364V (EC50, uM), Table 1 regular screen, class symbol

Compound	EC50 [1, 3]	EC50 [2, 4]	EC50 [1, 5]	EC50 [2, 6]	also measured
C=C(C)[C@@H]1CC[C@]2(NCC=C(C3CC3)C3CC3)CC[C@]3(C)[C@H](CC[C@@H]4[C@@]5(C)CC=C(C6=CC[C@](CF)(C(=O)O)CC6)C(C)(C)[C@@H]5CC[C@]43C)[C@@H]12 [Example 2-6, (S)-4-((1R,3aS,5aR,5bR,7aR,11aS,11bR,13aR,13bR)-3a-((3,3-dicyclopropylallyl)amino)-5a,5b,8,8,11a-pentamethyl-1-(prop-1-en-2-yl)-2,3,3a,4,5,5a,5b,6,7,7a,8,11,11a,11b,12,13,13a,13b-octadecahydro-1H-cyclopenta[a]chrysen-9-yl)-1-(fluoromethyl)cyclohex-3-enecarboxylic acid]	0.011 µM	3 µM			
C=C(C)[C@@H]1CC[C@]2(NC(=O)CC3CCOCC3)CC[C@]3(C)[C@H](CC[C@@H]4[C@@]5(C)CC=C(C6=CC[C@](CF)(C(=O)O)CC6)C(C)(C)[C@@H]5CC[C@]43C)[C@@H]12 [Example 8, (S)-1-(fluoromethyl)-4-((1R,3aS,5aR,5bR,7aR,11aS,11bR,13aR,13bR)-5a,5b,8,8,11a-pentamethyl-1-(prop-1-en-2-yl)-3a-(2-(tetrahydro-2H-pyran-4-yl)acetamido)-2,3,3a,4,5,5a,5b,6,7,7a,8,11,11a,11b,12,13,13a,13b-octadecahydro-1H-cyclopenta[a]chrysen-9-yl)cyclohex-3-enecarboxylic acid]			> 0.05 µM	> 0.05 µM	
C=C(C)[C@@H]1CC[C@]2(NC(CN3CCS(=O)(=O)CC3)C(F)(F)F)CC[C@]3(C)[C@H](CC[C@@H]4[C@@]5(C)CC=C(C6=CC[C@](CF)(C(=O)O)CC6)C(C)(C)[C@@H]5CC[C@]43C)[C@@H]12 (single isomer, unassigned) [Example 42]			> 0.05 µM	> 0.05 µM	
C=C(C)[C@@H]1CC[C@]2(NCCN3CCS(=O)(=O)CC3C(=O)OCC)CC[C@]3(C)[C@H](CC[C@@H]4[C@@]5(C)CC=C(C6=CC[C@@](CF)(C(=O)O)CC6)C(C)(C)[C@@H]5CC[C@]43C)[C@@H]12 (single isomer, unassigned) [Example 14]			< 0.05 µM	< 0.05 µM	
C=C(C)[C@@H]1CC[C@]2(CNCCCN3CCS(=O)(=O)CC3)CC[C@]3(C)[C@H](CC[C@@H]4[C@@]5(C)CC=C(C6=CC[C@@](CF)(C(=O)O)CC6)C(C)(C)[C@@H]5CC[C@]43C)[C@@H]12 [Example 11, (R)-4-((1R,3aS,5aR,5bR,7aR,11aS,11bR,13aR,13bR)-3a-(((3-(1,1-dioxidothiomorpholino)propyl)amino)methyl)-5a,5b, 8,8,11a-pentamethyl-1-(prop-1-en-2-yl)-2,3,3a,4,5,5a,5b,6,7,7a,8,11,11a,11b,12,13,13a,13b-octadecahydro-1H-cyclopenta[a]chrysen-9-yl)-1-(fluoromethyl)cyclohex-3-enecarboxylic acid]			< 0.05 µM	< 0.05 µM	
C=C(C)[C@@H]1CC[C@]2(NCC(=O)N3CCS(=O)(=O)C3)CC[C@]3(C)[C@H](CC[C@@H]4[C@@]5(C)CC=C(C6=CC[C@](CF)(C(=O)O)CC6)C(C)(C)[C@@H]5CC[C@]43C)[C@@H]12 [Example 35, (S)-4-((1R,3aS,5aR,5bR,7aR,11aS,11bR,13aR,13bR)-3a-((2-(1,1-dioxidothiazolidin-3-yl)-2-oxoethyl)amino)-5a,5b,8,8,11a-pentamethyl-1-(prop-1-en-2-yl)-2,3,3a,4,5,5a,5b,6,7,7a,8,11,11a,11b,12,13,13a,13b-octadecahydro-1H-cyclopenta[a]chrysen-9-yl)-1-(fluoromethyl)cyclohex-3-enecarboxylic acid]	0.00157 µM	0.157 µM			
C=C(C)[C@@H]1CC[C@]2(NCCN3CCC(C)(O)CC3)CC[C@]3(C)[C@H](CC[C@@H]4[C@@]5(C)CC=C(C6=CC[C@](CF)(C(=O)O)CC6)C(C)(C)[C@@H]5CC[C@]43C)[C@@H]12 [Example 2-23, (S)-1-(fluoromethyl)-4-((1R,3aS,5aR,5bR,7aR,11aS,11bR,13aR,13bR)-3a-((2-(4-hydroxy-4-methylpiperidin-1-yl)ethyl)amino)-5a,5b,8,8,11a-pentamethyl-1-(prop-1-en-2-yl)-2,3,3a,4,5,5a,5b,6,7,7a,8,11,11a,11b,12,13,13a,13b-octadecahydro-1H-cyclopenta[a]chrysen-9-yl)cyclohex-3-enecarboxylic acid]	0.00121 µM	0.0597 µM			
C=C(C)[C@@H]1CC[C@]2(NCCC3(O)CCC(OS(C)(=O)=O)CC3)CC[C@]3(C)[C@H](CC[C@@H]4[C@@]5(C)CC=C(C6=CC[C@](CF)(C(=O)O)CC6)C(C)(C)[C@@H]5CC[C@]43C)[C@@H]12 (stereo partly drawn) [Example 2-22, (S)-1-(fluoromethyl)-4-((1R,3aS,5aR,5bR,7aR,11aS,11bR,13aR,13bR)-3a-((2-(1-hydroxy-4-((methylsulfonyl)oxy)cyclohexyl)ethyl)amino)-5a,5b,8,8,11a-pentamethyl-1-(prop-1-en-2-yl)-2,3,3a,4,5,5a,5b,6,7,7a,8,11,11a,11b,12,13,13a,13b-octadecahydro-1H-cyclopenta[a]chrysen-9-yl)cyclohex-3-enecarboxylic acid]	0.00315 µM	0.107 µM			
C=C(C)[C@@H]1CC[C@]2(NCCO)CC[C@]3(C)[C@H](CC[C@@H]4[C@@]5(C)CC=C(C6=CC[C@@](CF)(C(=O)O)CC6)C(C)(C)[C@@H]5CC[C@]43C)[C@@H]12 [Example 19, (R)-1-(fluoromethyl)-4-((1R,3aS,5aR,5bR,7aR,11aS,11bR,13aR,13bR)-3a-((2-hydroxyethyl)amino)-5a,5b,8,8,11a-pentamethyl-1-(prop-1-en-2-yl)-2,3,3a,4,5,5a,5b,6,7,7a,8,11,11a,11b,12,13,13a,13b-octadecahydro-1H-cyclopenta[a]chrysen-9-yl)cyclohex-3-enecarboxylic acid]					EC50 ([1]; Human immunodeficiency virus 1, NL43, MT2, read-out: WT (EC50, uM)): < 0.05 µM; EC50 ([2]; Human immunodeficiency virus 1, NL43, MT2, read-out: A364V (EC50, uM)): > 0.05 µM
C=C(C)[C@@H]1CC[C@]2(NCC[C@]3(O)CC[C@](C)(O)CC3)CC[C@]3(C)[C@H](CC[C@@H]4[C@@]5(C)CC=C(C6=CC[C@](CF)(C(=O)O)CC6)C(C)(C)[C@@H]5CC[C@]43C)[C@@H]12 [Example 2-16, (S)-4-((1R,3aS,5aR,5bR,7aR,11aS,11bR,13aR,13bR)-3a-((2-((trans)-1,4-dihydroxy-4-methylcyclohexyl)ethyl)amino)-5a,5b,8,8,11a-pentamethyl-1-(prop-1-en-2-yl)-2,3,3a,4,5,5a,5b,6,7,7a,8,11,11a,11b,12,13,13a,13b-octadecahydro-1H-cyclopenta[a]chrysen-9-yl)-1-(fluoromethyl)cyclohex-3-enecarboxylic acid]	0.0021 µM	0.0571 µM			
C=C(C)[C@@H]1CC[C@]2(NCC(=O)N3CCN(S(C)(=O)=O)CC3)CC[C@]3(C)[C@H](CC[C@@H]4[C@@]5(C)CC=C(C6=CC[C@](CF)(C(=O)O)CC6)C(C)(C)[C@@H]5CC[C@]43C)[C@@H]12 [Example 33, (S)-1-(fluoromethyl)-4-((1R,3aS,5aR,5bR,7aR,11aS,11bR,13aR,13bR)-5a,5b,8,8,11a-pentamethyl-3a-((2-(4-(methylsulfonyl)piperazin-1-yl)-2-oxoethyl)amino)-1-(prop-1-en-2-yl)-2,3,3a,4,5,5a,5b,6,7,7a,8,11,11a,11b,12,13,13a,13b-octadecahydro-1H-cyclopenta[a]chrysen-9-yl)cyclohex-3-enecarboxylic acid]			< 0.05 µM	> 0.05 µM	
C=C(C)[C@@H]1CC[C@]2(NCC(=O)N3CCOCC3)CC[C@]3(C)[C@H](CC[C@@H]4[C@@]5(C)CC=C(C6=CC[C@](CF)(C(=O)O)CC6)C(C)(C)[C@@H]5CC[C@]43C)[C@@H]12 [Example 32, (S)-1-(fluoromethyl)-4-((1R,3aS,5aR,5bR,7aR,11aS,11bR,13aR,13bR)-5a,5b, 8,8,11a-pentamethyl-3a-((2-morpholino-2-oxoethyl)amino)-1-(prop-1-en-2-yl)-2,3,3a,4,5,5a,5b,6,7,7a,8,11,11a,11b,12,13,13a,13b-octadecahydro-1H-cyclopenta[a]chrysen-9-yl)cyclohex-3-enecarboxylic acid]			< 0.05 µM	> 0.05 µM	
C=C(C)[C@@H]1CC[C@]2(NC(CN)C(F)(F)F)CC[C@]3(C)[C@H](CC[C@@H]4[C@@]5(C)CC=C(C6=CC[C@](CF)(C(=O)O)CC6)C(C)(C)[C@@H]5CC[C@]43C)[C@@H]12 (single isomer, unassigned) [Example 39]	0.0473 µM	2.03 µM			

— patent publication US10245275B2 (ViiV HEALTHCARE UK (NO.4) LIMITED, priority 2014, dated 2019)
